Data on 27 compounds can be found in PubChem BioAssay (NCI).

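Dose response: 5 concentrations. Exposure: 48 h. Format: 96-well plates. Endpoint: linear interpolation; highest concentration if not reached. Abbreviation: GI50, concentration required for 50% inhibition of growth. TGI: concentration producing complete growth inhibition.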

Some test systems named below: KM20L2 colon; SNB-78 CNS; DMS 273 small cell lung; DMS 114 small cell lung; DLD-1 colon; XF 498 CNS; RXF-631 renal; HOP-18 NSCLC; MDA-N.
Test in all cases: NCI anticancer screen, dose series, 48 h

On to `Cc1[nH]c2ccccc2c1/C=C/c1c(C)[nH]c2ccccc12`, for which the TGI in the experiment with KM20L2 colon, in the experiment with SNB-78 CNS, with DMS 273 small cell lung, with DMS 114 small cell lung, with DLD-1 colon and with XF 498 CNS was above 100 µM each time.
Take `O=C1C=C(Nc2cc(Cl)ccc2Cl)c2ccccc2C1=O`: the TGI was above 100 µM in the experiment on RXF-631 renal; 70 µM in the experiment with HOP-18 NSCLC; above 100 µM with KM20L2 colon; above 100 µM with SNB-78 CNS; 68.6 µM in the experiment on DMS 273 small cell lung; 76.2 µM with DMS 114 small cell lung. The TGI in the experiment with DLD-1 colon was above 100 µM.
Turning to `Cc1c(C(=O)/C=C/c2ccc([N+](=O)[O-])cc2)[n+](=O)c2ccccc2n1[O-]`, the TGI with HOP-18 NSCLC, in the experiment on KM20L2 colon, with SNB-78 CNS, in the experiment on DMS 273 small cell lung, in the experiment with DMS 114 small cell lung and in the experiment with DLD-1 colon was above 100 µM in each case. This compound also gave a TGI in the experiment with XF 498 CNS above 100 µM.
As for `NC(N)=NCCCC(Nc1c2ccccc2nc2ccccc12)C(=O)O` (stereo not drawn), the TGI in the experiment with RXF-631 renal, in the experiment on KM20L2 colon, in the experiment with DMS 273 small cell lung and in the experiment on DLD-1 colon was above 100 µM in each case.
In the experiment with MDA-N, `CC1(C)CCC2(C(=O)O)C(O)CC3(C)C(=CCC4C5(C)CCC(OC6OCC(O)C(O)C6OC6OCC(O)C(O)C6OC6OCC(O)C(OC7OC(CO)C(O)C(O)C7O)C6O)C(C)(C)C5CCC43C)C2C1` (stereo not drawn) returned a TGI of 57.8 µM.
With `COC12OCCN(C)C1=CC(=O)C1N=NCC12` (stereo not drawn), the TGI with RXF-631 renal, in the experiment with HOP-18 NSCLC, in the experiment with SNB-78 CNS, in the experiment with DMS 273 small cell lung, in the experiment with DMS 114 small cell lung and with DLD-1 colon was above 100 µM in each case.
In the case of `CCN1CCCCCCCCCC(=N/O)/C(=N\O)C1`, the TGI in the experiment with MDA-N was above 100 µM.
Turning to `CC(=O)[CH-]C(=O)c1ccccc1.CC(=O)[CH-]C(=O)c1ccccc1.CC[C@H](CCC(C)[C@H]1CCC2[C@@H]3CC=C4C[C@@H]([O-])CC[C@]4(C)C3CC[C@@]21C)C(C)C.CC[C@H](CCC(C)[C@H]1CCC2[C@@H]3CC=C4C[C@@H]([O-])CC[C@]4(C)C3CC[C@@]21C)C(C)C.Cl.[Ti+4]` (stereo partly drawn), the GI50 in the experiment on HOP-18 NSCLC, in the experiment on KM20L2 colon, in the experiment on DMS 273 small cell lung and with DLD-1 colon was above 25 µM each time. The TGI in the experiment on HOP-18 NSCLC, with KM20L2 colon, in the experiment with DMS 273 small cell lung and in the experiment with DLD-1 colon was above 25 µM each time.
For the compound `COC1(OC)CCC2(C)OC(c3ccccc3)C1O2` (stereo not drawn), the TGI in the experiment with KM20L2 colon, with DMS 273 small cell lung, with DMS 114 small cell lung, in the experiment with DLD-1 colon and in the experiment on XF 498 CNS was above 100 µM each time.
In turn, `COC(=O)NC1=Nc2ccccc2C(=O)NN1` came in with a TGI with MDA-N above 100 µM.
As for `CCc1nc(N)nc(N)c1-c1ccc(N2CCNCC2)c([N+](=O)[O-])c1`, the TGI with MDA-N is above 100 µM.
Consider `O=C(CCl)N1CCN(c2ccccc2)CC1`, for which, in the experiment with MDA-N, the TGI came out at 39.9 µM.
For `CCOC(=O)C1(C)C2=CC=C(O2)C(C)(C)C2=CC=C(O2)C(C)(C)C2=CC=C(O2)C(C)(C)C2=CC=C1O2`, the TGI with RXF-631 renal, in the experiment on HOP-18 NSCLC, in the experiment on KM20L2 colon, with SNB-78 CNS, in the experiment with DMS 273 small cell lung and in the experiment with XF 498 CNS was above 100 µM in each case.
Turning to `C=C(CC)C(=O)c1ccc(OCC(=O)O)c(Cl)c1Cl`, the TGI in the experiment with MDA-N is above 55.2 µM.
As for `CCN(CC)CCN1C(=O)c2c(c3c4cccc(Cl)c4n(C4OC(CO)C(OC)C(O)C4O)c3c3[nH]c4c(Cl)cccc4c23)C1=O` (stereo not drawn), the GI50 in the experiment on HOP-18 NSCLC is 0.102 µM; in the experiment with KM20L2 colon, 0.000446 µM; in the experiment with SNB-78 CNS, 0.0475 µM; in the experiment on DMS 273 small cell lung, below 0.0001 µM; with DMS 114 small cell lung, below 0.0001 µM; with DLD-1 colon, 0.000403 µM. Moreover, the TGI came out at 0.0103 µM with KM20L2 colon, 0.284 µM with XF 498 CNS and 0.21 µM with MDA-N.
For the compound `O=C1CCC2(c3ccccc3)OCC([C@@H](O)c3ccccc3)N12` (stereo partly drawn), the TGI in the experiment on HOP-18 NSCLC, in the experiment with KM20L2 colon, in the experiment on SNB-78 CNS, in the experiment on DMS 273 small cell lung, in the experiment with DMS 114 small cell lung and with DLD-1 colon was above 100 µM each time. In addition, the TGI with XF 498 CNS was above 100 µM.
In the case of `Oc1ccc(I)c2cccnc12`, the TGI with HOP-18 NSCLC was 47.7 µM; in the experiment on KM20L2 colon, above 100 µM; in the experiment on SNB-78 CNS, above 100 µM; in the experiment with DMS 273 small cell lung, 14.1 µM; in the experiment with DLD-1 colon, above 100 µM; in the experiment with XF 498 CNS it was above 100 µM.
`O=c1[nH]c(-c2ccccc2)nc2cc([N+](=O)[O-])c(/C(Cl)=C/c3ccccc3)cc12`: the TGI in the experiment with KM20L2 colon, in the experiment with SNB-78 CNS, in the experiment with DMS 273 small cell lung and in the experiment on DMS 114 small cell lung was above 100 µM each time.
Regarding `C=CCc1cc(OC)c(O)c(C(=O)/C=C/c2ccc(OC)c(OC)c2)c1`, the TGI in the experiment on RXF-631 renal was 83.9 µM; in the experiment on SNB-78 CNS, above 100 µM; in the experiment on DMS 273 small cell lung, above 100 µM; with DMS 114 small cell lung, 52.1 µM; in the experiment with DLD-1 colon, 37.2 µM; in the experiment on XF 498 CNS, 27 µM.
The compound `C/C(=N\O)C1CC(CC(=O)O)C1(C)C` (stereo not drawn) gave a TGI with MDA-N above 100 µM.
Turning to `CC1CN1c1c(C(=O)/C=C/c2ccc(F)cc2)c(-c2ccccc2)nn(C)c1=O` (stereo not drawn), the TGI is 33.2 µM with HOP-18 NSCLC; 31.6 µM in the experiment with KM20L2 colon; 67.3 µM in the experiment on SNB-78 CNS; 31.1 µM in the experiment on DMS 114 small cell lung; 25.4 µM in the experiment with DLD-1 colon; 28.8 µM with XF 498 CNS.
In the experiment on MDA-N, `Cc1[nH]c(N)nc(=S)c1CCCNc1ccccc1` had a TGI above 100 µM.
Consider `O=C1CC[C@@H](S(=O)(=O)c2ccccc2)[C@H](/C=C/c2ccccc2)O1`, for which the TGI in the experiment with HOP-18 NSCLC and with DMS 114 small cell lung was above 100 µM in each case.
In the experiment on MDA-N, `NC(=O)NC(=O)Nc1ccc(Br)cc1` displayed a TGI above 100 µM.
Consider `COC(=O)C1C(=O)C(C(=O)OC)C2CCC1N2C` (stereo not drawn), for which the TGI in the experiment with MDA-N was determined as 73.8 µM.
For the compound `CC(=O)NNc1nc(C)c(C(=O)/C=C/c2ccc(N(C)C)cc2)s1`, the TGI with RXF-631 renal, with HOP-18 NSCLC, in the experiment on KM20L2 colon, in the experiment with SNB-78 CNS, with DMS 273 small cell lung and with DMS 114 small cell lung was above 100 µM each time. Besides, the TGI in the experiment on DLD-1 colon is above 100 µM.
In the case of `NC(=S)N/N=C/C(O[C@@H](/C=N/NC(N)=S)CO)n1cnc2c(N)ncnc21` (stereo partly drawn), the TGI was above 100 µM in the experiment on RXF-631 renal; above 100 µM in the experiment on HOP-18 NSCLC; above 100 µM in the experiment with KM20L2 colon; above 100 µM in the experiment with SNB-78 CNS; 97.7 µM in the experiment with DMS 273 small cell lung; above 55.9 µM in the experiment with DMS 114 small cell lung. In addition, the TGI with XF 498 CNS is above 100 µM.
